Source: paper PMC12426935, “On-Cell Saturation Transfer Difference NMR Spectroscopy on Ion Channels: Characterizing Negative Allosteric Modulator Binding Interactions of P2X7” (Journal of the American Chemical Society, 2025)
Where two headings read alike, the source gives them in different places.

Tests used:
M105A hP2X7 = target: T1, M105A hP2X7 (Homo sapiens, UniProt Q99572, M105A); assay: fura-2 intracellular calcium assay on HEK-293 stable cell line expressing NAM-site mutant M105A hP2X7; assay type: cell-based; conditions: for IC50: n = 3
T1 sequence (Q99572 1-595 M105A): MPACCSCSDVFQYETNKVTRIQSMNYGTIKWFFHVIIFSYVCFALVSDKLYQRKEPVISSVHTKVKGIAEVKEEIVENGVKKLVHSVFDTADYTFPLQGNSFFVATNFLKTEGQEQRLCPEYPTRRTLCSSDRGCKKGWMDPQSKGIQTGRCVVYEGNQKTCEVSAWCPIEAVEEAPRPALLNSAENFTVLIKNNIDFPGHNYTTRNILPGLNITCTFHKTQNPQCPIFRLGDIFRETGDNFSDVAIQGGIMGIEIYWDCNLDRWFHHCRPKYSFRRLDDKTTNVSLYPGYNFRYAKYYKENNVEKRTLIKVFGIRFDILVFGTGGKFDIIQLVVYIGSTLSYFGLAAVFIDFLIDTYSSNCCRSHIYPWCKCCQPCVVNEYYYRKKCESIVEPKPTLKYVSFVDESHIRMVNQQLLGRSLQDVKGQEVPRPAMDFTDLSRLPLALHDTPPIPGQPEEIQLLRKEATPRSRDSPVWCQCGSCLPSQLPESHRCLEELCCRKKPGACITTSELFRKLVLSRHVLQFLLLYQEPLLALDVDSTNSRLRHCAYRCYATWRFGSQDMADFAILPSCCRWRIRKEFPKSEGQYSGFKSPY
Description: (§1) Transfection was performed using lipofectamine 2000 (Fisher Scientific), and cells were subjected to Geneticin (800 μg/mL) selection for 2–3 weeks. This was followed by single cell cloning by limiting dilution in 96-well plates. Individual clones were selected for further study based on ATP-induced TO-PRO-3 uptake on a BD Cytoflex flow cytometer. Cell lines were maintained in DMEM:F12 media supplemented with 10% fetal bovine serum (PanBiotech), penicillin and streptomycin (Fisher Scientific) and kept in a humidified incubator with 5% CO2. Stable P2X7-expressing cells were kept under Geneticin selection at a concentration of 400 μg/mL. Passaging was performed twice weekly using 0.25% Trypsin-EDTA (Fisher Scientific).
(§2) P2X7 responses were measured by monitoring intracellular calcium responses using fura-2AM loaded cells. Cells were plated at 2–2.5 × 10^4 cells/well the day before experiments in 96-well plates (NUNC) coated with 50 μg/mL poly-D-lysine (Merck Millipore). A loading buffer containing 2 μM fura-2AM (HelloBio) and 250 μM sulfinpyrazone (Merck Millipore) in a low divalent buffer (145 mM NaCl, 5 mM KCl, 0.2 mM CaCl2, 10 mM HEPES, 13 mM glucose, pH 7.3) was added to cells for 45 min at 37 °C. After loading, the buffer was removed and replaced with calcium-containing extracellular solution (145 mM NaCl, 5 mM KCl, 2 mM CaCl2, 10 mM HEPES, 13 mM glucose, pH 7.3). Responses were measured using a Flexstation 3 plate reader (Molecular Devices) with dual excitation wavelengths of 340 and 380 nm and single emission wavelength of 510 nm. The sample interval was 3.5 s, and each well was recorded for 180 s. Fura-2 ratios were calculated in Softmax Pro v5.4; zero baseline was applied, and responses were measured as normalized area under the curve (AUC). Dose inhibition curves were plotted using GraphPad Prism v6 nonlinear regression (three parameter fit) and log IC50 values reported.

rat P2X7 (rP2X7) = target: T2, rat P2X7 (rP2X7) (Rattus norvegicus, UniProt Q64663); assay: fura-2 intracellular calcium assay on HEK-293 stable cell line expressing rat P2X7; assay type: cell-based; conditions: Rat P2X7 (Table 1), n = 3
T2 construct: expressed in transfected cells
T2 sequence (Q64663 1-595): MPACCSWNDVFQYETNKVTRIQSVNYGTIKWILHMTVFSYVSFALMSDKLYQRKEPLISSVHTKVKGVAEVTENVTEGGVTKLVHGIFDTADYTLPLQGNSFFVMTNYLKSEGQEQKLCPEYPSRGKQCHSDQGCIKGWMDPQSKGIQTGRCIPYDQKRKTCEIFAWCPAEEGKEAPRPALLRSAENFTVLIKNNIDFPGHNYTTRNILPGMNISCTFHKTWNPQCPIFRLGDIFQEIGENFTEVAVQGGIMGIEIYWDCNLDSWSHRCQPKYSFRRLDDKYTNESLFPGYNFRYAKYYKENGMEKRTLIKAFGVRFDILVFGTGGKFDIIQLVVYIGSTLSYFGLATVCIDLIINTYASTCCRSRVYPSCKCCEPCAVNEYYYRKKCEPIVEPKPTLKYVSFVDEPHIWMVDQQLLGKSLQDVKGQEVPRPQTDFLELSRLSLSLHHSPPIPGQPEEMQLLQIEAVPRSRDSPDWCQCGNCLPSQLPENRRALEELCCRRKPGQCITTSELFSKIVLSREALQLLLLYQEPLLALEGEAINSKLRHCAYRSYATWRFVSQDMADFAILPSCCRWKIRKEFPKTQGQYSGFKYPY
Description: as §1, with “Genetically edited HEK-293 cells lacking P2Y2 receptors were used to generate stable cell lines expressing human P2X7 (hP2X7), mouse P2X7 (mP2X7), rat P2X7 (rP2X7), or mutants of the hP2X7 NAM site (F88A, M105A, and F103A). Transfection” for “Transfection”
as §2

Question: Which results are given for `O=C(NCC1(N2CCN(c3ccccc3)CC2)CCOCC1)c1cccnc1Sc1ccccc1` [JNJ-47965567]?
Answer: IC50 (M105A hP2X7; M105A hP2X7, agonist ATP, log IC50 ± standard error, read-out: Log IC50 (converted)): 45.6 nM; IC50 (M105A hP2X7; M105A hP2X7, agonist ATP, mean in brackets, read-out: mean IC50): 45 nM; IC50 (M105A hP2X7; M105A hP2X7, agonist BzATP, mean in brackets, read-out: mean IC50): 28.7 nM; increase in IC50 at M105A-hP2X7 relative to hP2X7 (M105A hP2X7; M105A hP2X7 vs hP2X7): less than 5 fold; IC50 (rat P2X7 (rP2X7); log IC50 ± standard error, read-out: Log IC50 (converted)): 17.4 nM; IC50 (rat P2X7 (rP2X7); mean in brackets, read-out: mean IC50): 17.6 nM
